Experiments:
pgRNA [1] = assay: pgRNA assay (branched DNA), HBV-infected PHH; type: cell-based; settings: Hepatitis B virus
Description: Fresh primary human hepatocytes (PXB-PHH) harvested from humanized mice (uPA/SCID mice)—herein called PHH—were obtained from PhoenixBio Co., Ltd (Japan). Cells were seeded on a collagen I-coated plate at the following cell density: 35,000 cells/well (384-well), 70,000 cells/well (96-well), or, 400,000 cells/well (24-well) in modified hepatocyte clonal growth medium (dHCGM). dHCGM is a DMEM medium containing 100 U/ml Penicillin, 100 μg/ml Streptomycin, 20 mM Hopes, 44 mM NaHCO3, 15 μg/ml L-proline, 0.25 μg/ml insulin, 50 nM Dexamethazone, 5 ng/ml EGF, 0.1 mM Asc-2P, 2% DMSO and 10% FBS (Ishida et al., 2015). Cells were cultured at 37° C. incubator in a humidified atmosphere with 5% CO2. Culture medium was replaced 24 h post-plating and every 2 days until harvest.
Following 4 day of maturation with 1 μM MB-1, HLC were incubated with HBV (purified from CHB individuals) at multiplicity of infection (MOI) 10-40 without PEG for 24 hr; virus inoculum was removed the following day. […] Compound treatment in HLC and PHH was started at day 3 post infection. Compound (in powder) was dissolved in DMSO; the final concentration of DMSO added to cells is 1%. Fresh compound was replenished every 2 day until cells were harvested at day 10 (PHH), or day 14 (HLC). Compound effect on HBV and cellular toxicity was measured by multiplex assay (HBsAg, HBeAg, albumin), branched DNA (pgRNA), or digital PCR (cccDNA) and depicted as % of inhibition compared to DMSO control. Graphs were prepared using Spotfire software.
(§1) Levels of pgRNA in infected cells (96-well plate) were measured using QuantiGene Singleplex 2.0 assay (Affymetrix), a hybridization-based assay that utilizes the xMAP™ Luminex magnetic beads and branched DNA (bDNA) signal amplification technology. The assay is performed in 96-well plate according to manufacturer's recommendation. Briefly, cells were lysed and lysates were incubated with HBV probe sets panel at 50-55° C. for 30 min then stored at −80° C. Signal amplification is achieved via sequential hybridization of PreAmplifier, Amplifier, and Label Probe. After adding Streptavidin phycoerythrin (SAPE) substrate, the signal is read using a FlexMap 3D (Luminex) instrument.

pgRNA [2] = assay: pgRNA, HBV-infected HepaRG; type: cell-based; settings: Hepatitis B virus
Description: Following 4 day of maturation with 1 μM MB-1, HLC were incubated with HBV (purified from CHB individuals) at multiplicity of infection (MOI) 10-40 without PEG for 24 hr; virus inoculum was removed the following day. HBV infection in PHH was performed at MOI 40+4% PEG. Compound treatment in HLC and PHH was started at day 3 post infection. Compound (in powder) was dissolved in DMSO; the final concentration of DMSO added to cells is 1%. Fresh compound was replenished every 2 day until cells were harvested at day 10 (PHH), or day 14 (HLC). Compound effect on HBV and cellular toxicity was measured by multiplex assay (HBsAg, HBeAg, albumin), branched DNA (pgRNA), or digital PCR (cccDNA) and depicted as % of inhibition compared to DMSO control. Graphs were prepared using Spotfire software.
as §1
Most of HBV in vitro studies, including evaluation of compound antiviral activity, are performed in hepatoma cell lines (HepaRG or HepG2-NTCP) infected with cell culture-derived HBV (e.g. HepG2.2.15-derived virus, GT D). As evaluation of cccDNA destabilizers was performed with patient-derived HBV GT D in PHH (see FIGS. 3F and 4A-4B), the inventors asked whether compound potency would be similar when tested against patient-derived HBV isolates from other GTs, or cell culture-derived virus (HepG2.2.15). To address the first question, PHH (in 384-well plate) were infected with four clinical HBV isolates (GT A-D, at MOI 40). At day 3 pi, cells were treated with compound 7, or DMSO, every other day until harvested and analysed at day 10 pi. Several observations are noteworthy. First, clinical HBV isolates across GTs varied in their replication capacity in PHH; as noted earlier in HLC (see FIG. 21) and also by others (Mabit et al., 1996; Sozzi et al, 2016). […] For each isolate, the amounts of secreted viral antigens are in close agreement with their cccDNA levels; thus, GT A isolate had the highest amount of cccDNA (˜11,000 copies/well), followed by GT C, B, and D (see FIG. 5B). […] Next, the inventors evaluated whether antiviral activity of compound 7 could be affected by the source of virus inoculum. […]

[3] = HepG2.2.15-derived HBV GT D, MOI 40, read-out: pgRNA IC50 (μM) Median
[4] = HepG2.2.15-derived HBV GT D, MOI 125, read-out: pgRNA IC50 (μM) Median
[5] = patient-derived HBV GT D, MOI 125, read-out: pgRNA IC50 (μM) Median

O=C(NC(CO)CO)c1c[nH]c2ncc(C3CC3)nc12 [compound 7]
IC50 (pgRNA [1]; 240 h, patient-derived HBV GT A, MOI 40, day 10 pi, read-out: pgRNA IC50 (μM) Median): 3.58 µM
IC50 (pgRNA [1]; 240 h, patient-derived HBV GT B, MOI 40, day 10 pi, read-out: pgRNA IC50 (μM) Median): 3.13 µM
IC50 (pgRNA [1]; 240 h, patient-derived HBV GT C, MOI 40, day 10 pi, read-out: pgRNA IC50 (μM) Median): 1.64 µM
IC50 (pgRNA [1]; 240 h, patient-derived HBV GT D, MOI 40, day 10 pi (Table 5), read-out: pgRNA IC50 (μM) Median): 1.35 µM
IC50 (pgRNA [1]; [3]): 12.8 µM
IC50 (pgRNA [1]; [4]): 11.3 µM
IC50 (pgRNA [1]; patient-derived HBV GT D, MOI 40 (Table 6), read-out: pgRNA IC50 (μM) Median): 1.48 µM
IC50 (pgRNA [1]; [5]): 2.87 µM
IC50 (pgRNA [1]; patient-derived HBV, read-out: pgRNA IC50): 1.48 µM
IC50 (pgRNA [2]; [3]): 16.8 µM
IC50 (pgRNA [2]; [4]): 26.6 µM
IC50 (pgRNA [2]; patient-derived HBV GT D, MOI 40, read-out: pgRNA IC50 (μM) Median): 1.93 µM
IC50 (pgRNA [2]; [5]): 4.62 µM
